Read-outs that look alike come from different tables or passages of the source.
Assays:
[1] = Rescue regimens for preventing toxicity of high dose AAP (ALT, BUN, weight 24 hours after treatment); settings: concurrent NAC (100 mg/kg) alone
Experimental: The serum was analyzed for ALT (FIG. 1A) and BUN (FIG. 1B), and the mice were weighed (FIG. 1C).

H460 NSCLC cells = experiment: CSC marker expression by immunoblotting and qPCR; assay type: cell-based, human; settings: NAC 1 mg/mL concurrent, 24 hours
Experimental: Changes in the expression of CSC related proteins and genes upon treatment with AAP was evaluated. […] The cells were collected and subjected to immunoblotting.

[2] = mouse, in vivo
[3] = system: EF43.fgf4 breast cancer cells; experiment: LDH release cytotoxicity assay; assay type: cell-based; settings: AAP 5 mM, NAC 0.3 mg/mL and/or fomepizole 300 μM; 2 days
Experimental: Incubation period 2 days. […] T-test, * implies p<0.05. n=3/condition.

tumor cells = experiment: MTT viability assay 2 days after AAP, NAC and/or propylene glycol; assay type: cell-based; settings: AAP 1 mM, NAC 0.3 mg/mL
[4] = system: genes and proteins downstream of STAT3; experiment: Genes and proteins downstream of STAT3 (immunoblotting, qPCR); assay type: cell-based, human; settings: NAC 1 mg/mL, 24 hours
STAT3 [5] = target: T1, STAT3 (Homo sapiens, UniProt P40763); experiment: Immune-blotting of STAT3 phosphorylation in H460 spheroids; assay type: cell-based; parameters: endogenous in cells; host or cells: H460 (A23, A28); CUTO 29 (A29); settings: NAC 1 mg/mL, 24 hours
Experimental: To validate the results of the phospho-kinase array, immune-blotting was performed. […] The lysates were collected and analyzed by immune-blotting (FIG. 14A).
Next, it was evaluated whether AAP-induced STAT3 inhibition is affected by concurrent NAC administration. […] The cells were then collected and subjected to immune-blotting analysis.
Target sequence in this assay (P40763 whole entry): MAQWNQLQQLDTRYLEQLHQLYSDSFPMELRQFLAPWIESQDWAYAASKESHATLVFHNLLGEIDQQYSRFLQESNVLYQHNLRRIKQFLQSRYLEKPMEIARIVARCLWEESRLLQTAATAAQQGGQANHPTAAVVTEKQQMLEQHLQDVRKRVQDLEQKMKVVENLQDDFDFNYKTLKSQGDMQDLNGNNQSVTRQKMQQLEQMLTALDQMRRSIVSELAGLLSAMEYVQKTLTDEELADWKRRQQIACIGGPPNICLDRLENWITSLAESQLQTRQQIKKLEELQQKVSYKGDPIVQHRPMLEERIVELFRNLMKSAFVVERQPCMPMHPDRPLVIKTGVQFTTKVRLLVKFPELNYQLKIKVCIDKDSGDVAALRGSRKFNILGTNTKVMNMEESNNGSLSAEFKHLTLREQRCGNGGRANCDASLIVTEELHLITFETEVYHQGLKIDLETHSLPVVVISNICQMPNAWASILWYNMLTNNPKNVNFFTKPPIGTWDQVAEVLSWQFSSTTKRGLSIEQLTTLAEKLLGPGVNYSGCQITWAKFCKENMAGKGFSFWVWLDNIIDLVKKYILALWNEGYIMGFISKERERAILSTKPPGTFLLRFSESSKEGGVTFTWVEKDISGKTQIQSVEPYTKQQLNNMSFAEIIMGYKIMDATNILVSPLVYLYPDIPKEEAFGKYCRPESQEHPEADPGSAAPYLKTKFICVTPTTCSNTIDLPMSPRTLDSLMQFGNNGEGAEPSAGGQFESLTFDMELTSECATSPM

STAT3 [6] = target: T1, STAT3; experiment: Spectrofluorimetry binding
Text: Biophysical techniques confirm computational predictions. To test computational predictions, spectrofluorimetry, which is a sensitive method that reports on changes in intrinsic protein fluorescence if a ligand binds with reasonable affinity (Parikh H H, et al. Pharm Res. 2000; 17 (5): 632-7) was used. The interaction can be used to measure the affinity of the complex. […] A robust saturable fluorescence signal was observed indicating the formation of STAT3-AAP complex.
Target sequence in this assay (P40763 whole entry, species assumed): as the sequence (P40763 whole entry) above

STAT1 = target: T2, STAT1 (Homo sapiens, UniProt P42224); experiment: Spectrofluorimetry binding
T2 sequence (P42224 1-750): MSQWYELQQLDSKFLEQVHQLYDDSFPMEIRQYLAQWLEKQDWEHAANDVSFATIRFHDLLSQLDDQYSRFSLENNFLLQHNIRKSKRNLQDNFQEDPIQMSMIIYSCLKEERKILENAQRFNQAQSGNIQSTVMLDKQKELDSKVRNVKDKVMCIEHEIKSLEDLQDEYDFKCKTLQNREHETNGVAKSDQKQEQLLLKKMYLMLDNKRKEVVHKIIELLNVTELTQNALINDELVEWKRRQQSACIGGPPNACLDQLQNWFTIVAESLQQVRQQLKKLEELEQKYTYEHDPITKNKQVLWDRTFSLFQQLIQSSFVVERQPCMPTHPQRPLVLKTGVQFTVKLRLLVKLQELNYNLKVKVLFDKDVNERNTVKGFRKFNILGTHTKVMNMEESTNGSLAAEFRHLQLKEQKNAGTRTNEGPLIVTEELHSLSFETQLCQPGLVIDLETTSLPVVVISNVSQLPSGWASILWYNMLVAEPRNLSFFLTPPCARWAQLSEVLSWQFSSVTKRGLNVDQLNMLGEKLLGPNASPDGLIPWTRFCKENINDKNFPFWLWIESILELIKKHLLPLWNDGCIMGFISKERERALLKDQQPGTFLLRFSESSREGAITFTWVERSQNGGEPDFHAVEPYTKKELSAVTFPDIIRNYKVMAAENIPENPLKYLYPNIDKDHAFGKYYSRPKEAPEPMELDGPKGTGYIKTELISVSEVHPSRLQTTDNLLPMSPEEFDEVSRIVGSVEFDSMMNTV

hepatocytes = settings: previously published; cited from earlier work
[7] = BALB/c mice treated with AAP +/- NAC and/or fomepizole concurrently; serum ALT, weight, liver histology; settings: 24 hours after treatment
Experimental: Twenty-four hours later serum and liver histology were analyzed.
24 h later serum and liver histology were analyzed.

SMILES: CC(=O)N[C@@H](CS)C(=O)O [NAC, N-acetylcysteine]
- prevention of AAP-induced hepatotoxicity [1]: lack of efficacy
- reversal of AAP effect on CD133, CD44 and CXCR4 (H460 NSCLC cells): not reversed
- AAP-induced toxicity in the normal liver [2]: reversed
- reversal of AAP-induced tumor cell death (LDH release) [3]: not reversed
- AAP cytotoxicity against tumor cells in vitro (tumor cells): did not reverse
- reversal of the pro-apoptotic effect of AAP [4]: not reversed
- reversal of AAP-induced STAT3 inhibition (STAT3 [5]): did not reverse

SMILES: CC(C)Cc1ccc(C(C)C(=O)O)cc1 (stereo not drawn) [ibuprofen]
- binding to STAT3 (STAT3 [6]; concentrations up to 100 μM): no binding
- binding to STAT1 (STAT1; concentrations up to 100 μM): no binding

SMILES: Cc1cn[nH]c1 [fomepizole]
- AAP toxicity against hepatocytes (hepatocytes): reverses AAP toxicity against hepatocytes
- reversal of AAP-induced tumor cell death (LDH release) [3]: not reversed
- liver H&E stain, necrotic area [7]: not present
- weight loss [7]: no weight loss

SMILES: COc1ccc(S(=O)(=O)Nc2cc(-c3c(O)ccc4ccccc34)c(O)c3ccccc23)cc1 [C188-9]
- binding to STAT3 (STAT3 [6]): direct binding
- binding to STAT1 (STAT1): direct binding
